Numbered stars: 1 amine (or outer) side, 2 acyl side, 3 side chain; on linkers, the order of the positions; unused ones are H or OH. Square brackets hold non-standard residues; d marks the D form. Peptide text beside a SMILES is read from it. X1 = CC(F)(F)C[C@H](N[*:1])C(=O)[*:2]; Phe(2-Me) = Cc1ccccc1C[C@H](N)C(=O)O; Suc = O=C(CCC(=O)[*:2])[*:1]; Tle = CC(C)(C)[C@H](N)C(=O)O

In this assay the target is T1, HCV proteinase (Hepatitis C virus genotype 1b, UniProt P26662).
T1 construct: Regions encompassing the NS3 proteinase domain (amino acids 1007-1219); made in house; host or cells: E. coli strain MC1061
T1 sequence (P26662 1007-1219): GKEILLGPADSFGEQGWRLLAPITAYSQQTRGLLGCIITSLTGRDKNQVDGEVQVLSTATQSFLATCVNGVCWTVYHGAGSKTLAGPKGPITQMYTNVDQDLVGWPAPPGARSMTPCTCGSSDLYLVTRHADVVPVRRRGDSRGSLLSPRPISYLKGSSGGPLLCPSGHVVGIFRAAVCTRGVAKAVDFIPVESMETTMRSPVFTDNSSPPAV
Nature of the assay: HCV proteinase inhibition: cleavage of quenched fluorescence substrate NS4A/B.F peptide by enzyme MBP-NS3"Gly12-NS4A. The format is biochemical. To be noted: enzyme MBP-NS3"Gly12-NS4A 1 μg in 200 μl, pH 8.5, 15 minutes preincubation, NS4A/B.F peptide 10 μM, read after a further 10 minutes. The text has this:
As mentioned earlier, the compounds of formula I and salts of acidic compounds of formula I with bases are inhibitors of proteases of viral origin.
The nucleotide sequence of this expression plasmid is given in FIGS. 1a-j appended hereto and the amino acid sequence of its expression product is given in FIG. 2 appended hereto. It is based on the pMAL®-c2 vector supplied by New England Biolabs, Inc. (32 Tozer Rd., Beverly, Mass., USA). The principle of the construction was to create an in-frame fusion of the maltose binding protein (MBP) gene supplied by the pMAL-c2 vector, and sequences of the HCV genome necessary for NS3 proteinase activity. These HCV sequences were inserted between the EcoRI and HindIII sites of the pMAL-c2 polylinker (positions 2695 and 3556 respectively of the sequence given in FIGS. 1a-j).
HCV sequences were derived from plasmids pDS 3348-4045 and pBFK 3348-6062, described by Bartenschlager et al, 1993 (Journal of Virology, 67, 3835-3844). Regions encompassing the NS3 proteinase domain (amino acids 1007-1219) and the NS4A domain (amino acids 1658-1711) were isolated and inserted into the pMAL-c2 vector using standard recombinant DNA techniques, including the PCR amplification of required sequences. Between the NS3 and NS4A domains, a linker region was constructed using synthetic oligonucleotides (positions 3343-3390; amino acids 606-621). The resulting plasmid was used to transform E. coli (strain MC1061) cells and expression of the MBP-NS3"Gly12 -NS4A enzyme was induced as described below.
E. coli (strain MC1061) cells transformed with the foregoing plasmid were grown in Luria broth containing ampicillin (100 μg/ml) at 37° C. The cells were grown until an optical density of 0.5 at 600 nm had been reached and enzyme expression was then induced by adding 1 mM isopropylthiogalactoside and incubating at 37° C. for a further 3 hours. The cells were harvested by centrifugation and stored at -80° C.
A pellet from 4 l of bacterial culture was resuspended in E.coli lysis buffer (20 mM Tris HCl, pH 7.5, containing 150 mM NaCl, 1 mM EDTA and 10 mM dithiothreitol) and cell lysis was achieved by two passages through a French Pressure cell. The clear supernatant obtained by centrifugation (18000 g, 30 minutes) was then applied to an amylose resin column (4×1 cm) (New England Biolabs) which had been equilibrated with ice-cold 50 mM Tris HCl, pH 8.5, containing 200 mM NaCl, 1 mM dithiothreitol and 5% glycerol. The column was washed thoroughly with the equilibration buffer and bound protein was eluted using the equilibration buffer containing 10 mM maltose. Fractions of 1 ml were collected, with fractions containing the enzyme being pooled and stored at -80° C. Enzyme concentration was assayed by the method of M. B. Bradford, Analytical Biochemistry, 1976, vol. 72, p.248.
Compounds of formula I (routinely prepared as stock solutions in DMSO) were assayed for their ability to inhibit the cleavage of a quenched fluorescence substrate [NS4A/B.F peptide (N-[4-[4-(dimethylamino)phenylazo]benzoyl]-L-α-aspartyl-L-α-glutamyl-L-methionyl-L-(x-glutamyl-L-α-glutamyl-L-cysteinyl-L-alanyl-L- seryl-L-histidyl-N5-[2-(5-sulpho-1-naphthylamino)ethyl]-L-glutaminamide); Wilkinson et al, Society for General Microbiology Meeting, University of Warwick, England, 28 Mar. 1996] based on the NS4A/4B cleavage site by enzyme MBP-NS3"Gly12 -NS4A in microtitre plates as follows:
The enzyme (1 μg) was added to 200 μl final volume of a mixture containing 50 mM Tris HCl, pH 8.5, with 1 mM dithiothreitol, 0.1% Triton X-100 and the test compound of formula I. The resulting mixture was incubated at room temperature for 15 minutes prior to starting the reaction by the addition of NS4A/B.F peptide to a final concentration of 10 μM. The progress of the reaction was evaluated with a Perseptive Biosystems Cytofluor II using an excitation wavelenth of 360 nm and an emission wavelength of 530 nm. […]
As to `CCCC(NC(=O)[C@H](CC(C)C)NC(=O)[C@@H](NC(=O)[C@H](Cc1ccccc1C)NC(=O)[C@H](CCC(=O)O)NC(=O)[C@H](CC(=O)O)NC(=O)CCC(=O)O)C(C)(C)C)B(O)O` (mixture of isomers) [F, 1(RS)-[[N-[N-[N-[N-[N-(3-carboxypropionyl)-L-α-aspartyl]-L-α-glutamyl]-2-methyl-L-phenylalanyl]-3-methyl-L-valyl]-L-leucyl]amino]butylboronic acid], half-maximal inhibition (IC50) required 160 nM.
The result for `Cc1ccccc1C[C@H](NC(=O)[C@H](CCC(=O)O)NC(=O)[C@H](CC(=O)O)NC(=O)CCC(=O)O)C(=O)N[C@H](C(=O)N[C@@H](CC(C)C)C(=O)NC(C=O)CC(F)(F)F)C(C)(C)C` (mixture of isomers) [C, 2(RS)-[[N-[N-[N-[N-[N-(3-carboxypropionyl)-L-α-aspartyl]-L-α-glutamyl]-2-methyl-L-phenylalanyl]-3-methyl-L-valyl]-L-leucyl]amino]-4,4,4-trifluorobutyraldehyde] reads 64 nM.
As for `CCC(NC(=O)[C@H](CC(C)C)NC(=O)[C@@H](NC(=O)[C@H](Cc1ccccc1C)NC(=O)[C@H](CCC(=O)O)NC(=O)[C@H](CC(=O)O)NC(=O)CCC(=O)O)C(C)(C)C)B(O)O` (mixture of isomers) [E, 1(RS)-[[N-[N-[N-[N-[N-(3-carboxypropionyl)-L-α-aspartyl]-L-α-glutamyl]-2-methyl-L-phenylalanyl]-3-methyl-L-valyl]-L-leucyl]amino]propylboronic acid], the figure is 38 nM.
The result for `C=CCC(NC(=O)[C@H](CC(C)C)NC(=O)[C@@H](NC(=O)[C@H](Cc1ccccc1C)NC(=O)[C@H](CCC(=O)O)NC(=O)[C@H](CC(=O)O)NC(=O)CCC(=O)O)C(C)(C)C)B(O)O` (mixture of isomers) [D, 1(RS)-[[N-[N-[N-[N-[N-(3-carboxypropionyl)-L-α-aspartyl]-L-α-glutamyl]-2-methyl-L-phenylalanyl]-3-methyl-L-valyl]-L-leucyl]amino]-3-butenylboronic acid] reads 34 nM; that for `C=CCC(C=O)NC(=O)[C@H](CC(C)C)NC(=O)[C@@H](NC(=O)[C@H](Cc1ccccc1C)NC(=O)[C@H](CCC(=O)O)NC(=O)[C@H](CC(=O)O)NC(=O)CCC(=O)O)C(C)(C)C` (mixture of isomers) [A, 2(RS)-[[N-[N-[N-[N-[N-(3-carboxypropionyl)-L-α-aspartyl]-L-α-glutamyl]-2-methyl-L-phenylalanyl]-3-methyl-L-valyl]-L-leucyl]amino]-4-pentenaldehyde], 90 nM; that for `Cc1ccccc1C[C@H](NC(=O)[C@H](CCC(=O)O)NC(=O)[C@H](CC(=O)O)NC(=O)CCC(=O)O)C(=O)N[C@H](C(=O)N[C@@H](CC(C)C)C(=O)N[C@H](C=O)CC(C)(F)F)C(C)(C)C` [B, 2(S)-[[N-[N-[N-[N-[N-(3-carboxypropionyl)-L-α-aspartyl]-L-α-glutamyl]-2-methyl-L-phenylalanyl]-3-methyl-L-valyl]-L-leucyl]amino]-4,4-difluorovaleraldehyde] (Suc-DE[Phe(2-Me)][Tle]L[X1]-aldehyde), 70 nM.
